From patent US12565490B2, “Inhibitors of Receptor Interacting Protein Kinase I for the treatment of disease” (Board of Regents, The University of Texas System, priority 2020, dated 2026)

Tested on: human monocytic cell line U937
Experiment: Human U937 cellular necroptosis assay
Assay type: cell-based
Settings: U-937; U937 cells stimulated with 25 ng/mL human TNFalpha and 25 μM z-VAD-FMK; 22 hr; viability by Cell Titer-Glo 2.0; read-out: hU937 IC50
Description: Human U937 Cellular Necroptosis Assay
The human monocytic cell line U937 (CRL-1593.2) may be purchased from ATCC. The cells are routinely maintained in RPMI-1640 Medium (Gibco, Catalog #11875-093) supplemented with 10% heat inactivated fetal bovine serum (Gibco, Catalog #16140-071), 100 units/mL penicillin and 100 μg/mL streptomycin (Gibco, Catalog #15140-122), in a humidified incubator (37° C., 5% CO2). For the assay, cells are resuspended in RPMI-1640 phenol red free Media (Gibco, Catalog #11835-030) supplemented with 10% fetal bovine serum (Sigma, Catalog #F2442), 100 units/mL penicillin and 100 ug/mL streptomycin. Cells are stimulated with 25 ng/mL human TNFalpha (Cell Sciences, Catalog #CSI15659B) and 25 μM z-VAD-FMK (R&D Systems, Catalog #FMK001) followed by seeding 5000 cells per well in a volume of 40 μL to a white, CulturPlate-384 (Perkin Elmer, Catalog #6007680). Stock solutions of the test compounds are prepared in 100% DMSO (Sigma, Catalog #D2650) and serially diluted 1:3 using 100% DMSO. Compounds are additionally diluted 1:40 in assay medium, and 10 μL/well was transferred to the plate. Following the compound addition, the plate is incubated at 37° C. and 5% CO2 for 22 hr. After 22 hr, viability is assessed with the addition of 20 μL of Cell Titer-Glo 2.0 (Promega, Catalog #G9243). The tissue culture plate is shaken on an orbital shaker at 300 RPM for 15 minutes at room temperature in the dark. Luminescence is measured using a PerkinElmer Envision™ plate reader. IC50 values are calculated using a four-parameter logistic curve fit using Genedata Screener software. Compounds disclosed herein are expected to have activity in this assay.

Row | SMILES | IC50 [nM]
1 | Cc1cnc(C(=O)N[C@H]2COc3cc(C#N)ccc3N(C)C2=O)nc1N1CCN(C)CC1 [Example 31, (S)-N-(8-cyano-5-methyl-4-oxo-2,3,4,5-tetrahydro-benzo[b][1,4]oxazepin-3-yl)-5-methyl-4-(4-methylpiperazin-1-yl)pyrimidine-2-carboxamide] | ≥ 10000
2 | Cc1cnc(C(=O)N[C@H]2COc3cc(C#N)ccc3N(C)C2=O)nc1N1CC(F)(F)C1 [Example 32, (S)-N-(8-cyano-5-methyl-4-oxo-2,3,4,5-tetrahydro-benzo[b][1,4]oxazepin-3-yl)-4-(3,3-difluoroazetidin-1-yl)-5-methylpyrimidine-2-carboxamide] | 1120
3 | Cc1ccc(C(=O)N[C@H]2COc3cc(C#N)ccc3N(C)C2=O)nc1Br [Example 33, (S)-6-bromo-N-(8-cyano-5-methyl-4-oxo-2,3,4,5-tetrahydro-benzo[b][1,4]oxazepin-3-yl)-5-methylpicolinamide] | ≥ 10000
4 | Cc1ccc(C(=O)Nc2cccc(Cl)c2F)nc1-c1ccccc1 [Example 34, N-(3-chloro-2-fluorophenyl)-5-methyl-6-phenylpicolinamide] | ≥ 10000
5 | Cc1ccc(C(=O)Nc2cccc(Cl)c2F)nc1-c1cc(F)ccc1F [Example 35, N-(3-chloro-2-fluorophenyl)-6-(2,5-difluorophenyl)-5-methylpicolinamide] | ≥ 10000
6 | Cc1ccc(C(=O)N[C@H]2COc3cc(C#N)ccc3N(C)C2=O)nc1-c1ccc(F)cc1 [Example 36, (S)-N-(8-cyano-5-methyl-4-oxo-2,3,4,5-tetrahydro-benzo[b][1,4]oxazepin-3-yl)-6-(4-fluorophenyl)-5-methyl-picolinamide] | 260
7 | CN1C(=O)[C@@H](NC(=O)c2ccc(Cl)c(-c3ccc(F)cc3)n2)COc2cc(C#N)ccc21 [Example 37, (S)-5-chloro-N-(8-cyano-5-methyl-4-oxo-2,3,4,5-tetrahydro-benzo[b][1,4]oxazepin-3-yl)-6-(4-fluorophenyl)picolinamide] | 1560
8 | Cc1cnc(C(=O)N[C@H]2COc3cc(C#N)ccc3N(C)C2=O)nc1-c1ccc(F)cc1F [Example 38, (S)-N-(8-cyano-5-methyl-4-oxo-2,3,4,5-tetrahydro-benzo[b][1,4]oxazepin-3-yl)-4-(2,4-difluorophenyl)-5-methyl-pyrimidine-2-carboxamide] | 18.9
9 | Cc1cnc(C(=O)N[C@H]2COc3ccc(CN4CCn5ncnc5C4)cc3N(C)C2=O)nc1-c1ccccc1 [Example 39, (S)-N-(7-((5,6-dihydro-[1,2,4]triazolo[1,5-a]pyrazin-7(8H)-yl)methyl)-5-methyl-4-oxo-2,3,4,5-tetrahydro-benzo[b][1,4]oxazepin-3-yl)-5-methyl-4-phenylpyrimidine-2-carboxamide] | 12.9
10 | Cc1ccc(C(=O)N[C@H]2COc3cc(C#N)ccc3N(C)C2=O)nc1-c1ccccc1 [Example 40, (S)-N-(8-cyano-5-methyl-4-oxo-2,3,4,5-tetrahydro-benzo[b][1,4]oxazepin-3-yl)-5-methyl-6-phenylpicolinamide] | 1570
11 | Cc1ccc(C(=O)N[C@H]2COc3cc(C#N)ccc3N(C)C2=O)nc1-c1cc(F)ccc1F [Example 41, (S)-N-(8-cyano-5-methyl-4-oxo-2,3,4,5-tetrahydro-benzo[b][1,4]oxazepin-3-yl)-6-(2,5-difluorophenyl)-5-methylpicolinamide] | 594
12 | Cc1cnc(C(=O)N[C@H]2COc3cc(C#N)ccc3N(C)C2=O)nc1-c1ccccc1F [Example 42, (S)-N-(8-cyano-5-methyl-4-oxo-2,3,4,5-tetrahydro-benzo[b][1,4]oxazepin-3-yl)-4-(2-fluorophenyl)-5-methylpyrimidine-2-carboxamide] | 19.4
13 | Cc1cnc(C(=O)N[C@H]2COc3cc(C#N)ccc3N(C)C2=O)nc1C1CCCOC1 (stereo partly drawn) [Example 43, N-((S)-8-cyano-5-methyl-4-oxo-2,3,4,5-tetrahydro-benzo[b][1,4]oxazepin-3-yl)-5-methyl-4-(tetrahydro-2H-pyran-3-yl)pyrimidine-2-carboxamide] | 154
14 | Cc1cnc(C(=O)N[C@H]2COc3cc(C#N)ccc3N(C)C2=O)nc1N1CC2CCC1C2 (stereo partly drawn) [Example 44, 4-(2-azabicyclo[2.2.1]heptan-2-yl)-N-((S)-8-cyano-5-methyl-4-oxo-2,3,4,5-tetrahydro-benzo[b][1,4]oxazepin-3-yl)-5-methylpyrimidine-2-carboxamide] | 789
15 | Cc1cnc(C(=O)N[C@H]2COc3cccnc3N(C)C2=O)nc1-c1ccccc1F [Example 45, (S)-4-(2-fluorophenyl)-5-methyl-N-(5-methyl-4-oxo-2,3,4,5-tetrahydropyrido[3,2-b][1,4]oxazepin-3-yl)pyrimidine-2-carboxamide] | 10
16 | CN1C(=O)[C@@H](NC(=O)c2ncc(Cl)c(-c3ccc(F)cc3F)n2)COc2ccccc21 [Example 46, (S)-5-chloro-4-(2,4-difluorophenyl)-N-(5-methyl-4-oxo-2,3,4,5-tetrahydrobenzo[b]-[1,4]oxazepin-3-yl)pyrimidine-2-carboxamide] | 11.8
17 | CN1C(=O)[C@@H](NC(=O)c2ncc(Cl)c(-c3ccccc3F)n2)COc2cccnc21 [Example 47, (S)-5-chloro-4-(2-fluorophenyl)-N-(5-methyl-4-oxo-2,3,4,5-tetrahydro-pyrido[3,2-b][1,4]oxazepin-3-yl)pyrimidine-2-carboxamide] | 29.8
18 | CN1C(=O)[C@@H](NC(=O)c2ncc(Cl)c(-c3cccc(F)c3)n2)COc2cccnc21 [Example 48, (S)-5-chloro-4-(3-fluorophenyl)-N-(5-methyl-4-oxo-2,3,4,5-tetrahydro-pyrido[3,2-b][1,4]oxazepin-3-yl)pyrimidine-2-carboxamide] | 13.2
19 | CN1C(=O)[C@@H](NC(=O)c2ncc(Cl)c(-c3ccc(F)cc3)n2)COc2cccnc21 [Example 49, (S)-5-chloro-4-(4-fluorophenyl)-N-(5-methyl-4-oxo-2,3,4,5-tetrahydro-pyrido[3,2-b][1,4]oxazepin-3-yl)pyrimidine-2-carboxamide] | 8.35
20 | CN1C(=O)[C@@H](NC(=O)c2ncc(Cl)c(-c3ccc(F)cc3F)n2)COc2cccnc21 [Example 50, (S)-5-chloro-4-(2,4-difluorophenyl)-N-(5-methyl-4-oxo-2,3,4,5-tetrahydro-pyrido[3,2-b][1,4]oxazepin-3-yl)pyrimidine-2-carboxamide] | 9.29
21 | CN1C(=O)[C@@H](NC(=O)c2ncc(Cl)c(-c3cc(F)ccc3F)n2)COc2cccnc21 [Example 51, (S)-5-chloro-4-(2,5-difluorophenyl)-N-(5-methyl-4-oxo-2,3,4,5-tetrahydro-pyrido[3,2-b][1,4]oxazepin-3-yl)pyrimidine-2-carboxamide] | 10.6
22 | CN1C(=O)[C@@H](NC(=O)c2ncc(Cl)c(-c3ccc(Cl)cc3)n2)COc2cccnc21 [Example 52, (S)-5-chloro-4-(4-chlorophenyl)-N-(5-methyl-4-oxo-2,3,4,5-tetrahydro-pyrido[3,2-b][1,4]oxazepin-3-yl)pyrimidine-2-carboxamide] | 12
23 | Cc1ccc(-c2nc(C(=O)N[C@H]3COc4cccnc4N(C)C3=O)ncc2Cl)c(F)c1 [Example 53, (S)-5-chloro-4-(2-fluoro-4-methylphenyl)-N-(5-methyl-4-oxo-2,3,4,5-tetrahydro-pyrido[3,2-b][1,4]oxazepin-3-yl)pyrimidine-2-carboxamide] | 11.7
24 | Cc1ccc(-c2nc(C(=O)N[C@H]3COc4cccnc4N(C)C3=O)ncc2Cl)cc1F [Example 54, (S)-5-chloro-4-(3-fluoro-4-methylphenyl)-N-(5-methyl-4-oxo-2,3,4,5-tetrahydro-pyrido[3,2-b][1,4]oxazepin-3-yl)pyrimidine-2-carboxamide] | 13.6
25 | C[C@H]1Oc2cccnc2N(C)C(=O)[C@H]1NC(=O)c1ncc(Cl)c(-c2ccc(F)cc2F)n1 [Example 55, 5-chloro-4-(2,4-difluorophenyl)-N-((2R,3S)-2,5-dimethyl-4-oxo-2,3,4,5-tetrahydropyrido[3,2-b]-[1,4]oxazepin-3-yl)pyrimidine-2-carboxamide] | 34.4
26 | CN1C(=O)[C@@H](NC(=O)c2ncc(Cl)c(-c3cncc(F)c3)n2)COc2cccnc21 [Example 56, (S)-5-chloro-4-(5-fluoropyridin-3-yl)-N-(5-methyl-4-oxo-2,3,4,5-tetrahydropyrido[3,2-b]-[1,4]oxazepin-3-yl)pyrimidine-2-carboxamide] | 180
27 | Cc1cnc(C(=O)N[C@H]2COc3cccnc3N(C)C2=O)nc1C12CCC(CC1)CC2 [Example 57, (S)-4-(bicyclo[2.2.2]octan-1-yl)-5-methyl-N-(5-methyl-4-oxo-2,3,4,5-tetrahydro-pyrido[3,2-b][1,4]oxazepin-3-yl)pyrimidine-2-carboxamide] | 90.9
28 | Cc1cnc(C(=O)N[C@H]2COc3cccnc3N(C)C2=O)nc1C1CCOCC1 [Example 58, (S)-5-methyl-N-(5-methyl-4-oxo-2,3,4,5-tetrahydro-pyrido[3,2-b][1,4]oxazepin-3-yl)-4-(tetrahydro-2H-pyran-4-yl)pyrimidine-2-carboxamide] | 229
